# Measured values reported in US20260014125A1, “BICYCLIC-TYPE MAT2A INHIBITOR AND USE THEREOF” (HAIHE BIOPHARMA CO., LTD., priority 2022, published 2026).
# Legend:
# [1] = molecular target: MAT2A (Homo sapiens (Human), UniProt P31153); assay: Biochemical test: inhibition of MAT2A enzyme activity (phosphate detection, OD620); details: MAT2A his-tag; 150 minutes enzymatic reaction
# Excerpt: Experimental principle: MAT2A can catalyze the conversion of L-methionine and ATP into SAM, inorganic phosphate, and inorganic diphosphate. By adding a chromogenic reagent to the enzymatic reaction system, the content of inorganic phosphates in a sample can be quantitatively detected, thereby characterizing the enzymatic activity of MAT2A.
# Experimental material: Tris (Life Science #0497); BSA (Sigma #); MAT2A his-tag (BPS #71401-1); 384 well plate (Corning #3765); L-methionine (Admas #1100469); ATP (Sigma #A7699); MgCl2 (Sigma #M8266); KCl (Sigma #7447-40-7); Brij35 (Sigma #B4184); EDTA (Sigma #E1644)
# 1. 1×Assaybuffer (buffer composition: Tris, KCl, MgCl2, BSA, Brij35, and EDTA; the solvent was ultrapure water) was prepared. MAT2A his-tag enzyme solution (containing 1.3 μL of MAT2A enzyme and 998.7 μL of 1×Assaybuffer per 1000 μL) and substrate mixed solution (containing 5 μL of ATP, 1.3 μL of L-methionine, and 993.7 μL of 1×Assaybuffer per 1000 μL) were prepared using 1×AssayBuffer.
# 2. Preparation of compound concentration gradient: The test compound was tested with a starting concentration of 10 μM, and 10 equimolar concentrations were set according to a 3-fold dilution. Specifically, firstly, the compound was diluted into 10 different concentrations of series solutions in a 384 well plate (with final detection concentrations of 10, 3.33, 1.11, 0.37, 0.123, 0.041, 0.0137, 0.0046, 0.0015, and 0.0005 μM), and then 250 nL of the above series solutions was transferred to the 384 well reaction plate using an ultrasonic pipetting system Echo550 for later use. 250 nL of 100% DMSO was added into a negative control well and a positive control well, respectively. Double well test.
# 3. 15 μL of MAT2A his-tag enzyme solution was added into both the compound well and the positive control well; and 15 μL of 1×Assaybuffer was added into the negative control well.
# 4. The 384 well plate reaction plate was centrifuged at 1000 rpm for 60 seconds, shaken, mixed well, and incubated for 15 minutes. 10 μL of substrate mixed solution was added into each experimental well of the 384 well reaction plate to initiate the reaction.
# 5. The 384 well reaction plate was centrifuged at 1000 rpm for 60 seconds, shaken, mixed well, and incubated for 150 minutes.
# 6. 50 μL of enzyme reaction termination solution Biomol was added into all experimental wells of the 384 well reaction plate to terminate the reaction, centrifuged at 1000 rpm for 60 seconds, and incubated for 15 minutes. OD620 was read and data was processed.
# Data analysis: the inhibition rate (%) of the compound was calculated and fitted to obtain the IC50 of the tested compound. Calculation method for compound inhibition rate: Compound inhibition rate (%)=(OD620_max−OD620_stample)/(OD620_max−OD620_min)×100, wherein OD620_stample was the absorbance value of the sample well; OD620 min was the absorbance value of the positive control well, indicating the reading of the wells without enzyme activity; and OD620_max was the absorbance value of the negative control well, indicating the reading of the well without compound inhibition.
# [2] = system: KP-4 cells; assay: Human pancreatic cancer KP-4 cell activity inhibition test (CellTiter-Glo); type: cell-based; details: Homo sapiens, 120 h, 5 days
# Procedure: Experimental principle: after co-incubating the MAT2A inhibitor to be tested with KP-4 cells for a period of time, a cell viability measurement method based on ATP content is used to characterize the effect of the tested compound on cell viability.
# Experimental material: KP-4 cells (JCRB #JCRB0182); IMDM (Gibco 912440061); fetal bovine serum (EXCELL #FND500); penicillin-streptomycin (Gibco #15140-122); 0.25% Typsin-EDTA (Gibco #252(101-072); DMSO (Sigma #D2650); 96 well plate (Corning #3610); CellTiter-Glo (Promega #G7571)
# 1. KP-4 cells were cultured in IMDM culture medium containing 10% e fetal bovine serum and 1% penicillin-streptomycin at 37° C. and 5% CO2 in a cell culture incubator. Only cells in logarithmic growth phase were used for subsequent experiments.
# 2. The cells in logarithmic growth phase were inoculated into a 96 well plate, with a seeding quantity of 500 cells per well, and incubated overnight in a cell culture incubator at 37′C and 5% CO2.
# 3. The compound was dissolved with DMSO, diluted with culture medium to 10 different concentrations (approximately […]), 3333.3, 1111.1, 370, 123, 41.2, 13.7, 4.6, 1.5, and 0.5 nM) before adding it to the cell plate, and cultured at 37° C. and 5% CO2 for 5 days.
# 4. CellTiter-Glo reagent was added, and an enzyme-linked immunosorbent assay reader was used to detect cell viability.
# Data analysis: the inhibition rate (%) of the compound was calculated and fitted to obtain the IC50 of the tested compound. Calculation method for compound inhibition rate: Compound inhibition rate (%)=(Signal_max−Signal_sample)/(Signal_max−Signal_min)×100, wherein Signal_sample was the sample well reading, indicating the cell activity of the compound inhibition well; Signal_min was the positive control well reading, indicating the background activity without cells; and Signal_max was the negative control well reading, indicating the cell activity of the well without compound inhibition.
# Sequence of MAT2A (P31153 whole entry): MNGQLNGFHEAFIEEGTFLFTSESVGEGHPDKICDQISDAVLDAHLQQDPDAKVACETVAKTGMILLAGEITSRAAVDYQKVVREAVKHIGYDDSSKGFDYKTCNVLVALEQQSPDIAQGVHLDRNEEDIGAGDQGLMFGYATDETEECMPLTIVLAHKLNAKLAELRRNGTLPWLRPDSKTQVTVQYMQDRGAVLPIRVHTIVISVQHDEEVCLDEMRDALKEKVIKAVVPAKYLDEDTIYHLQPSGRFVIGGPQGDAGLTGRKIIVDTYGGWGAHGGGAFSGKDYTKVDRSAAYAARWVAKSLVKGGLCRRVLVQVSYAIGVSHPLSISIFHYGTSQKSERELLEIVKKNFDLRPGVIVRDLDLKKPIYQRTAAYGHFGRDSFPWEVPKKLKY
IC50 [1],IC50 [2],Structure (SMILES)
16.7 nM,146 nM,CCOc1c(-c2ccc(Cl)cc2)c(=O)n(C2=NC3C(C=C2)N=NN3C)c2[nH]ncc12 (centres unmarked) [Compound 141]
17 nM,39.2 nM,Cn1cnc2ccc(-n3c(=O)c(-c4ccc(Cl)cc4)c(OCC(F)(F)F)c4cn[nH]c43)cc21 [Compound 36]
18 nM,236 nM,CCOc1c(-c2cnc(C(F)(F)F)nc2)c(=O)n(-c2ccc3nn(C)cc3c2)c2[nH]ncc12 [Compound 124]
20.7 nM,25 nM,CCOc1c(-c2ccc(Cl)cc2)c(=O)n(-c2ccc3nn(C)cc3n2)c2[nH]ncc12 [Compound 84]
28.3 nM,–,CCOc1c(-c2ccc(C(F)(F)F)nc2)c(=O)n(-c2ccc3nn(C)cc3n2)c2[nH]ncc12 [Compound 87]
55.8 nM,–,CCOc1c(-c2ccc(OC(F)F)cc2)c(=O)n(-c2cnc3nn(C)cc3c2)c2[nH]ncc12 [Compound 40]
35.3 nM,> 10000 nM,CCNc1c(-c2ccc(OC)cc2)c(=O)n(-c2ccc(=O)n(C)c2)c2[nH]ncc12 [Compound 7]
18.2 nM,32 nM,CCOc1c(-c2ccc(Cl)cc2)c(=O)n(-c2ccc3nn(C4COC4)cc3c2)c2[nH]ncc12 [Compound 90]
16.5 nM,160 nM,CCOc1c(-c2ccc(Cl)cc2)c(=O)n(-c2ccc3nn(CCN(C)C)cc3n2)c2[nH]ncc12 [Compound 132]
12.7 nM,11.4 nM,CCOc1c(-c2ccc(OC(F)F)cc2)c(=O)n(-c2ccc3nn(C)cc3n2)c2[nH]ncc12 [Compound 41]
22.1 nM,–,CCOc1c(-c2ccc(Cl)cc2)c(=O)n(-c2ccc3ncn(CC)c3c2)c2[nH]ncc12 [Compound 34]
1120 nM,–,CCOc1c(-c2ccc(Cl)cc2)c(=O)n(-c2ccc3nn(C)cc3n2)c2c1cnn2C [Compound 121]
20.7 nM,–,Cn1cc2cc(-n3c(=O)c(-c4ccc(Cl)cc4)c(OCCO)c4cn[nH]c43)ccc2n1 [Compound 59]
27.4 nM,–,CCOc1c(-c2ccc(C)cc2)c(=O)n(-c2ccc3nn(C)cc3n2)c2[nH]ncc12 [Compound 133]
11.2 nM,–,CCSc1c(-c2ccc(Cl)cc2)c(=O)n(-c2ccc3nn(C)cc3c2)c2[nH]ncc12 [Compound 130]
708 nM,–,CCNc1c(-c2ccc(OC)cc2)c(=O)n(-c2ccc(C#N)cc2)c2[nH]ncc12 [Compound 6]
16 nM,–,CCOc1c(-c2ccc(C#N)cc2)c(=O)n(-c2ccc3nn(C)cc3c2)c2[nH]ncc12 [Compound 65]
–,18.9 nM,CCOc1c(-c2ccc(OC(F)F)cc2)c(=O)n(-c2ccc3nn(CCOC)cc3c2)c2[nH]ncc12 [Compound 21]
17.8 nM,–,CCOc1c(-c2ccc(Cl)cc2)c(=O)n(-c2ccc3nn(C)cc3c2)c2[nH]cnc12 [Compound 67]
14.2 nM,–,COCCOc1c(-c2ccc(Cl)cc2)c(=O)n(-c2ccc3nn(C)cc3c2)c2[nH]ncc12 [Compound 60]
120 nM,–,CCOc1c(-c2ccc(OC(F)F)cc2)c(=O)n(-c2ccc3nn(C)cc3c2)c2c1cnn2C [Compound 31]
10.3 nM,–,[2H]C([2H])([2H])C([2H])([2H])Oc1c(-c2ccc(Cl)cc2)c(=O)n(-c2ccc3nn(C)cc3c2)c2[nH]ncc12 [Compound 142]
27.7 nM,–,CCOc1c(-c2ccc(Cl)cc2)c(=O)n(-c2ccc3nn(C)cc3c2)c2nn(CCO)cc12 [Compound 122]
16.3 nM,–,CCOc1c(-c2ccc(C)nc2)c(=O)n(-c2ccc3nn(C)cc3c2)c2[nH]ncc12 [Compound 48]

IC50 [1],IC50 [2],Structure (SMILES)
335 nM,–,CCOc1c(-c2ccc(Cl)cc2)c(=O)n(-c2ccn3nc(C)cc3n2)c2[nH]ncc12 [Compound 116]
22.9 nM,–,CCOc1c(-c2cccc(OC)c2)c(=O)n(-c2ccc3nn(C)cc3c2)c2[nH]ncc12 [Compound 18]
> 10000 nM,–,CCNc1c(-c2ccc(Cl)cc2)c(=O)n(-c2ccc3c(c2)ncn3C)c2[nH]ncc12 [Compound 16]
45.3 nM,–,CCOc1c(-c2ccc(=O)[nH]c2)c(=O)n(-c2ccc3nn(C)cc3c2)c2[nH]ncc12 [Compound 125]
60.8 nM,–,CCOc1c(-c2ccc(Cl)cc2)c(=O)n(-c2ccc3ncn(C4CNC4)c3c2)c2[nH]ncc12 [Compound 35]
24.4 nM,–,CCOc1c(-c2ccc(Cl)cc2)c(=O)n(-c2ccc3nn(C)cc3c2)c2cn(C)nc12 [Compound 56]
14.2 nM,–,CCOc1c(C2CCCCC2)c(=O)n(-c2ccc3nn(C)cc3c2)c2[nH]ncc12 [Compound 61]
17.9 nM,–,CCOc1c(-c2ccc(Cl)cc2)c(=O)n(-c2ccc3nn(C)nc3c2)c2nn(C)cc12 [Compound 136]
67.3 nM,–,CCOc1c(-c2ccc(Cl)cc2)c(=O)n(-c2ccn3nccc3c2)c2[nH]ncc12 [Compound 114]
17.4 nM,–,CCOc1c(-c2ccc(C)nc2)c(=O)n(-c2ccc3nn(CC)cc3c2)c2[nH]ncc12 [Compound 101]
50.7 nM,–,CCOc1c(-c2ccc(Cl)cc2)c(=O)n(-c2ccc3nn(C)nc3n2)c2nn(C)cc12 [Compound 138]
15 nM,–,Cn1cc2cc(-n3c(=O)c(-c4ccc(OC(F)F)cc4)c(OCC4CC4)c4cn[nH]c43)ccc2n1 [Compound 39]
–,89.2 nM,CCOc1c(-c2ccc(OC(F)F)cc2)c(=O)n(-c2ccn3nccc3c2)c2[nH]ncc12 [Compound 23]
14.6 nM,–,Cn1cnc2ccc(-n3c(=O)c(-c4ccc(OC(F)F)cc4)c(OCC4CC4)c4cn[nH]c43)cc21 [Compound 32]
–,274 nM,CCOc1c(-c2ccc(OC(F)F)cc2)c(=O)n(-c2ccc3ncnn3c2)c2[nH]ncc12 [Compound 25]
36.2 nM,–,CCOc1c(-c2ccc(Cl)cc2)c(=O)n(-c2ccc3c(cnn3CCN(C)C)c2)c2[nH]ncc12 [Compound 131]
16 nM,–,Cc1ccc(-c2c(OCC(F)(F)F)c3cn[nH]c3n(-c3ccc4nn(C)cc4n3)c2=O)cn1 [Compound 89]
13 nM,–,CCOc1c(-c2ccc(Cl)cc2)c(=O)n(-c2ccc3nnn(C)c3c2)c2nn(C)cc12 [Compound 140]
–,256 nM,CCOc1c(-c2ccc(OC(F)F)cc2)c(=O)n(-c2ccc3nccn3c2)c2[nH]ncc12 [Compound 24]
18.5 nM,–,CCN(C)c1c(-c2ccc(Cl)cc2)c(=O)n(-c2ccc3nn(C)cc3c2)c2[nH]ncc12 [Compound 64]
62.4 nM,–,CCOc1c(-c2ccc(Cl)cc2)c(=O)n(-c2ccc3nn(C)cc3c2)c2cnn(C)c12 [Compound 100]
18.3 nM,–,CCCc1c(-c2ccc(Cl)cc2)c(=O)n(-c2ccc3nn(C)cc3c2)c2[nH]ncc12 [Compound 112]
376 nM,–,CCOc1c(-c2ccc(Cl)cc2)c(=O)n(-c2ccc3c(cnn3CCN(C)C)n2)c2[nH]ncc12 [Compound 139]
20.3 nM,–,CCOc1c(-c2ccc(C)nc2)c(=O)n(-c2ccc3nn(C)cc3n2)c2[nH]ncc12 [Compound 86]
